According to patent publication US20070173499A1 (priority 2004, published 2007):
Like-named read-outs stand apart in the source and are kept apart here. Each block holds one compound with its values, some of them ahead of it.

What was measured:
[1] = biological target: T1, 5-HT2C receptor (Homo sapiens, UniProt P28335); assay: radioligand binding assay for 5-HT2C receptor ([3H]-mesulergine)
T1 construct: expressed in transfected cells; host or cells: CHO-K1 (or COS-7); alternatively choroid plexus tissue
T1 sequence (P28335 33-458): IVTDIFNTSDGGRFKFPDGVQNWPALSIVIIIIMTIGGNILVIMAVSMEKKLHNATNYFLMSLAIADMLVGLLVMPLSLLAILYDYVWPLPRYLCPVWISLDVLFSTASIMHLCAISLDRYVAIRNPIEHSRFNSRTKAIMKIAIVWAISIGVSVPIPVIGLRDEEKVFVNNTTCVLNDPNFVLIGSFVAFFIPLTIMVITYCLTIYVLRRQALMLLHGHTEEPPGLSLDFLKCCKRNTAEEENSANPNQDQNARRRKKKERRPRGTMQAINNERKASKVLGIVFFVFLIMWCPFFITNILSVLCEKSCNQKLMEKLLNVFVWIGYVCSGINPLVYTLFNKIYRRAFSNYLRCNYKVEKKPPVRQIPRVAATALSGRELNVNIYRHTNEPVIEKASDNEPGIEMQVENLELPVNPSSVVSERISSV
Protocol: (§1) The effect of the compounds of the present invention on the neurochemical steady state was determined by in vitro investigations such as a radionuclide-marked radioligand binding assay for 5-HT2A (Bonhaus D. W. Br. J. Pharmacol. 1995, 115:622; Saucier C. J. Neurochem. 1997, 68:1998) and 5-HT2C receptors (Wolf W. A. J. Neurochem. 1997, 69:1449), in vitro binding assay for σ1 receptor (Thomson W. and Donn R. Arthritis Res. 2002, 4: 302-306) and by in vivo investigations in a tail suspension test (Vogel H. G. and Vogel W. H. Drug Discovery and Evaluation Pharmacological Assays, Springer 1997, 304), in amphethamine-induced hyperlocomotion in mice (Millan M. J. et al, 1998 J Pharmacol. Exp. Ther. 287: 167-186), in a forced swim test in mice (Porsolt R. D. et al. Arch. Int. Pharmacodyn. 1977, 229:327-336), in meta-chlorophenyl piperazine (m-CPP) test on rats (Drug Dev. Res. 1989, 18:119-144), and in apomorphine, tryptamine and norepinephrine (ATN) test in rats (Arch. Int. Pharmacodyn. 1977, 227:238-253).
(§2) A small concentration of a radioligand having a great affinity for binding to a receptor was incubated with a tissue sample enriched with a certain receptor (1-5 mg of tissue) in a buffered medium (0.2-5 mL). Recombinant human HT2A and HT2C receptors were expressed in CHO-K1 or COS-7 cells and were also used for competitive binding. During incubation the radioligand bound to the receptor. When a binding balance was achieved, the receptors to which the radioligand was bound were separated from those to which said ligand was not bound, and the radioactivity of the receptor/radioligand complex was measured. The interaction of the tested compounds with receptors was tested in competitive binding experiments. Various concentrations of tested compounds were added to the incubation mixture containing a prepared tissue enriched with corresponding receptors and the radioligand. The radioligand binding was inhibited by the test compounds proportionally to the affinity of a certain compound for the receptor and to the concentration of the compound.
(§3) The radioligand used for the determination of binding to 5-HT2A receptor was [^3H]-ketanserin and the tissue used was human cortex or recombinant 5-HT2A receptor expressed in CHO-K1 cells. The radioligand used for the determination of binding to 5-HT2C receptor was [^3H]-mesulergine and the tissue used was choroid plexus or recombinant 5-HT2C receptor expressed in CHO-K1 cells.

[2] = biological target: T2, 5-HT2A receptor (Homo sapiens, UniProt P28223); assay: radioligand binding assay for 5-HT2A receptor ([3H]-ketanserin)
T2 construct: expressed in transfected cells; host or cells: CHO-K1 (or COS-7); alternatively human cortex tissue
Protocol: as §1, §2, §3

[3] = biological target: T3, σ1 receptor (Homo sapiens, UniProt Q99720); assay: in vitro binding assay for σ1 receptor, Jurkat cell membranes, [3H]haloperidol; conditions: [3H]haloperidol 10 nM
T3 construct: endogenous in cells; host or cells: Jurkat cells (membrane fraction)
Protocol: as §1, with “227:238-253). […]” for “227:238-253).”
Binding of different radiolabeled ligans to Jurkat cell membranes was measured as described previously (Ramamoorthy et al., 1995). […]
Membranes were incubated with ligands in phosphate buffer for 3 hours at room temperature. After filter had been washed, radioactivity associated with the filter was determined by liquid scintillation spectrometry.

T2 sequence (P28223 whole entry): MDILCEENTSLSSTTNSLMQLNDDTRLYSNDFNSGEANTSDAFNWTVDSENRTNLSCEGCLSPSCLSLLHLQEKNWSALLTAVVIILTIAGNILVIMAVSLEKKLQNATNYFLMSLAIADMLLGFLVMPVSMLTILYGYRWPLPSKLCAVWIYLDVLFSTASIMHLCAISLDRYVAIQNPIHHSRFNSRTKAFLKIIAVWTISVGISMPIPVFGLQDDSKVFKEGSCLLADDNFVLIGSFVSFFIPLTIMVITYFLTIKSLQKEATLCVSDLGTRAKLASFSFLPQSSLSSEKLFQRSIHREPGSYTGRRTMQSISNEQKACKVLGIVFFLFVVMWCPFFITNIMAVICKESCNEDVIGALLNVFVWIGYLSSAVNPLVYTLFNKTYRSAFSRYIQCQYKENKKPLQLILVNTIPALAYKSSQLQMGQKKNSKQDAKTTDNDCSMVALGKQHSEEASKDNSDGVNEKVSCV
T3 sequence (Q99720 whole entry): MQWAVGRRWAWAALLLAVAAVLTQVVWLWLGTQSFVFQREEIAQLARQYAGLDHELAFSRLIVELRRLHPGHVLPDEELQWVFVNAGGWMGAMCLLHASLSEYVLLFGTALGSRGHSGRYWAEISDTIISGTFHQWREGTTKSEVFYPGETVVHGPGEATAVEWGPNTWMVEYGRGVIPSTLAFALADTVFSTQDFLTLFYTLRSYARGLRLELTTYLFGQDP

SMILES: CN(C)CCCOCc1cc2c(s1)-c1cc3ccccc3cc1Sc1ccccc1-2
- IC50 [1]: < 200 nM
- Ki [1]: < 100 nM
- IC50 [2]: < 200 nM
- Ki [2]: < 100 nM

- IC50 ([3]; read-out: binding affinity to σ1 receptor expressed as IC50): < 200 nM
- Ki ([3]; read-out: binding affinity to σ1 receptor, Ki): < 100 nM
SMILES: CC(CN(C)C)OCc1cc2c(s1)-c1cc3c(cc1Oc1ccccc1-2)CCCC3 (stereo not shown) [dimethyl-[2-(10,11,12,13-tetrahydro-8-oxa-1-thia-benzo[e]naphtho[3,2-h]azulen-2-ylmethoxy)-propyl]-amine]

- IC50 ([1]; [3H]-mesulergine, choroid plexus or recombinant 5-HT2C receptor in CHO-K1 cells, read-out: binding affinity to 5-HT2C serotonin receptor expressed as IC50): < 200 nM
- Ki ([1]; [3H]-mesulergine, choroid plexus or recombinant 5-HT2C receptor in CHO-K1 cells, read-out: binding affinity to 5-HT2C serotonin receptor, Ki): < 100 nM
- IC50 ([2]; [3H]-ketanserin, human cortex or recombinant 5-HT2A receptor in CHO-K1 cells, read-out: binding affinity to 5-HT2A serotonin receptor expressed as IC50): < 200 nM
- Ki ([2]; [3H]-ketanserin, human cortex or recombinant 5-HT2A receptor in CHO-K1 cells, read-out: binding affinity to 5-HT2A serotonin receptor, Ki): < 100 nM
SMILES: CN(C)CCCOCc1cc2c(s1)-c1ccc3ccccc3c1Sc1ccccc1-2 [dimethyl-[3-(3,10-dithia-benzo[e]naphtho[1,2-h]azulen-2-ylmethoxy)-propyl]-amine]
